One data set concerns K562 cell line. Nature of the data set: Cytotoxicity, MTS method. The format is cell-based. The conditions noted are these: Homo sapiens, K562, 72 hours of incubation. On the procedure:
The anti-tumor activity of the compounds of the present invention was evaluated as the effect on the proliferation and survival of tumor cells by counting the number of living cells in presence or absence of the compounds ("cell count method"), and as the effect on the viability and metabolic activity of the cells, by using particular substrates that are converted by cellular enzymes into coloured or luminescent products, proportionally with metabolic activity and state of the cell, such as the MTS tetrazolium compound ("MTS method") or luciferin ("ATP-based method") respectively.
Cells were seeded at 3 to 5 x 10^4 cells/well density depending on cell lines and maintained at 37°C in 5% CO2. After 24 hours cells were treated with ascending concentrations of the investigational compounds and the reference (5-fluoro-Uracyl) in a range from 0 to 100 µM. […] After 72 h of incubation with compounds, the cells were detached with trypsin and re-suspended in 1 ml of complete medium; the cell number was evaluated using a Z2 Coulter Counter ("cell count method") (Attallah and Johnson, A simple highly sensitive methods for the determination of cell viability using an electronic particle analyzer, Coulter counter J. Immunol. Methods. 1981, 41, 155; Leonardi et al., Activated kinase screening identifies the IKBKE oncogene as a positive regulator of autophagy. Autophagy, 2019, 15, 312). […]
(In general: Tetrazolium assays rely on reduction of a dye to a coloured formazan, in cell work by metabolically active cells.)

Data set [1] is described as follows: Kinetic solubility (turbidimetry). The conditions noted are these: for Absorbance at 620nm: PBS pH 7.4, 37°C, 2 h. The format is physicochemical. On the procedure: Kinetic solubility was assessed in phosphate buffered saline at pH 7.4 according to the turbidimetry method. Turbidity (precipitation) was measured by absorbance at 620 nm following incubation at 37°C for 2 h. Stock solution of compounds in DMSO were prepared to produce the desired final range of concentrations, then these were added to the buffer to obtain the final test compound concentrations (1 µM, 3 µM, 10 µM, 30 µM, 100 µM), with a final DMSO concentration 1%). Solubility was estimated from the concentration of tested compound that produced a significant increase in absorbance (≥ 0.003 OD at 620 nm) above vehicle control (1% DMSO in water). Miconazole, Reserpine and Propranolol were used as controls.

A further data set has as its target T1, hERG channels (Homo sapiens, UniProt Q12809).
T1 construct: host or cells: HEK293
Nature of the data set: hERG inhibition (whole cell patch clamp, HEK293). The format is cell-based. The conditions noted are these: 300nM to 30µM, HEK293 cells. On the procedure:
HEK293 cells (Eurofins Discover X, Catalogue number CYL3039) stably expressing hERG channels (human ether-a-go-go-related gene potassium channels were plated onto 12 mm coverslips, 12 to 18 h before performing the assay. Cells with coverslips were placed in recording chamber of molecular devices profiled with extracellular solution. Glass capillary with a tip resistance from […] was back filled with intracellular solution. Giga seal was attained using a sequence of positive and negative pressure.
Whole cell configuration was attained using a gentle suction. Cell capacitance and series resistance compensation was done using software controls provided in multi clamp 700B commander. The cells are maintained at a holding potential of -80mV; hERG currents are activated by cell depolarization to +20mV for 2 seconds followed by a 3 second repolarization to -60mV (frequency: 0.05Hz).
Electrical signals were filtered at 2 KHz and digitized at 5 KHz. Series resistance compensation was typically 60% to 70% such that voltage errors were less than 5 mV. […] Data were acquired using Clampex acquisition software. […]
Amplitude of the tail current upon repolarization to -60mV (pA) and inhibition of the hERG tail current with respect to untreated cells (%) are measured. […]
Background: Block of hERG is tested as a sign of cardiac risk.

Data set [2] in a line: Tissue distribution after single I.P. administration. It is filed as in vivo, male Swiss Albino Mice. As to the method: The pharmacokinetic study was performed in male Swiss albino mice from Hylasco Biotechnology Pvt. Ltd. (A Charles River technology Licensee). The tissue distribution study was performed in male Swiss albino mice and in male FOXN1^nu/nu nude mice (Envigo spa). The efficacy study was performed in male FOXN1^nu/nu nude mice.
Single intraperitoneal administration studies were done as follows: • 1. Compound 5 • dose 1: 45 mg/kg • dose concentration: […] in 10% DMSO, 5% TWEEN 80 and WFI (85%) • volume: 5 ml/kg • blood withdrawal time points: 0.25, 0.5, 1, 2, 4, 6, 8, 24 hours post administration • brain, liver and lungs collected at 4, 8 and 24 hours • 2. Compound 5 • dose 2: 10 mg/kg • dose concentration: 2 mg/ml in 10% DMSO, 10% Solutol and WFI (90%). • volume: 5 ml/kg • blood withdrawal time points: 0.25, 0.5, 1, 2, 4, 6, 8, 24 hours post administration
Selected organs were collected at 4, 8 and 24 hours for drug distribution studies: mice were anesthetized and intra-cardiac whole body perfusion was performed using chilled saline. Separated tissues were immediately washed, dried, weighed and frozen at -80±10°C until homogenization. The levels of compound in the tissues and in plasma were quantified by LC-MS/MS, using as instrument Q-TRAP 500, with a column Phenomenex, KINETEX 5µ EVO C18 50 mm X 4.5 mm (Phenomenex). The mobile phase employed was composed as follows: aqueous reservoir, 10 mM Ammonium Acetate with 0.1% Formic acid in MilliQ water; organic reservoir, Acetonitrile:Methanol (50:50, v/v); flow rate 1 ml/min; injection volume 10µl; rinsing solution, Acetonitrile:Methanol:Water (20:60:20, v/v).
Distribution to tissues is expressed as ratio between the compound level in tissues (ng compounds/ mg tissue) divided by the compound levels in blood (ng/ml), considering 1 ml of blood equal to […].

Where [3] appears, read: 4 hours after single administration I.P. 45 mg/Kg.
Setting [4] is: 8 hours after single administration I.P. 45 mg/Kg.
[5] abbreviates: 24 hours after single administration I.P. 45 mg/Kg.

Bounds are passed on as bounds.

T1 sequence (Q12809 whole entry): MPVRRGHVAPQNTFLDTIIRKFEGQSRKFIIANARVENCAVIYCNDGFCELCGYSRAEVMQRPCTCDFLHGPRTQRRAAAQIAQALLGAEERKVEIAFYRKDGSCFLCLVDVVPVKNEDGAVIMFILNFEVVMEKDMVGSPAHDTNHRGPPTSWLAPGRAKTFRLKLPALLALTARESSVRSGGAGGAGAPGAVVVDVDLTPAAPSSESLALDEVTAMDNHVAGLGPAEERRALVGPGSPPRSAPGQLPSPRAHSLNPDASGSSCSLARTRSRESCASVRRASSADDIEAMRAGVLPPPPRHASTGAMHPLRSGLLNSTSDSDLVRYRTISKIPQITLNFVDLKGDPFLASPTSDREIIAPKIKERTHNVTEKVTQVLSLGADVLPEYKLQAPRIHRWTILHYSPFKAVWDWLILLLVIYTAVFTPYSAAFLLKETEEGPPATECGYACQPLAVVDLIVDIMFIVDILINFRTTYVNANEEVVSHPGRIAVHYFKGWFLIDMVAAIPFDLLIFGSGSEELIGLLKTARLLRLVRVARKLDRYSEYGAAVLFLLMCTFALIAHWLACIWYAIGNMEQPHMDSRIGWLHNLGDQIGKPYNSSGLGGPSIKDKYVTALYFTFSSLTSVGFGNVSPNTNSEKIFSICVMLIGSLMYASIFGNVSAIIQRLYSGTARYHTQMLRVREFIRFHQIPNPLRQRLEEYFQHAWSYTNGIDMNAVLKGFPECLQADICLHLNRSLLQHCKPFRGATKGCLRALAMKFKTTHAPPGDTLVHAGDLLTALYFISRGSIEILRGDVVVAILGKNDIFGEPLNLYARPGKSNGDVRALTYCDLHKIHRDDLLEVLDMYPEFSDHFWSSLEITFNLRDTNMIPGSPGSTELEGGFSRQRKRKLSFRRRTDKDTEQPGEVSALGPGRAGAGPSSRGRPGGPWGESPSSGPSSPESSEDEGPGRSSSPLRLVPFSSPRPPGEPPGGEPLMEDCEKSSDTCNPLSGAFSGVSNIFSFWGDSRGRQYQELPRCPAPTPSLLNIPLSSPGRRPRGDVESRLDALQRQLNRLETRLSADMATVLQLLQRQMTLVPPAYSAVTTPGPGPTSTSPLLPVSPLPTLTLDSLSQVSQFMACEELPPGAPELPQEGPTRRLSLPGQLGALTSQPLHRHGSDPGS

As usually defined, the IC50 is the concentration at which inhibition is half-maximal. In general, solubility refers to the dissolved amount per volume that the medium holds. `CCCCc1cn(-c2ccc(-c3nnc(-c4ccccc4C(F)(F)F)o3)cc2)nn1` [Compound 5] came in with an IC50 in the data set with K562 cell line of 20.3 µM. Also, the solubility at 2 h in data set [1] (37 °C, aqueous buffer, kinetic from dmso stock, kinetic solubility, PBS pH 7.4, read-out: solubility) was over 100 µM. The “Absorbance at 620nm” value was 0.037 in data set [1] (conc. 1 µM); 0.037 in data set [1] (conc. 3 µM); 0.037 in data set [1] (conc. 10 µM); 0.037 in data set [1] (conc. 30 µM); 0.038 in data set [1] (conc. 100 µM). Moreover, the “effect on the conductance of the hERG channel” value at hERG channels was “No effect on the conductance of the hERG channel”. Further, the Liver to plasma in data set [2] (setting [3]) was determined as 11.2; in data set [2] (setting [4]), 9.2; in data set [2] (setting [5]), 9.2. The figures for the Plasma in data set [2] (setting [3]), in data set [2] (setting [4]) and in data set [2] (setting [5]) were 2171 ng/mL, 775 ng/mL and 273 ng/mL, respectively. The Kp at 4 h in data set [2] (mouse, brain, ip, 4 hours after single administration I.P. 45 mg/Kg, read-out: Brain to plasma) was found to be 2.4. Moreover, the Kp at 8 h in data set [2] (mouse, brain, ip, 8 hours after single administration I.P. 45 mg/Kg, read-out: Brain to plasma) turned out to be 2.1. In data set [2] (mouse, brain, ip, 24 hours after single administration I.P. 45 mg/Kg, read-out: Brain to plasma), the Kp at 24 h is 1.75.

Source of the values: patent EP4050002A1, “ANTI-PROLIFERATIVE AGENTS” (First Health Pharmaceuticals B.V., priority 2021, dated 2022).
